According to US20100298329A1, “TOLPERISONE AND TOLPERISONE-LIKE DRUGS FOR THE TREATMENT OF K-RAS ASSOCIATED CANCERS” (Massachusette Institute of Technology, priority 2007, published 2010):

Assays:
[1] = test system: K-Ras mutant cells (cells with Kras G12D mutation); test: FACS analysis of cell death and proliferation (Tunnel/PI staining, DNA content, BrdU staining); assay type: cell-based
Procedure: The effects of lanperisone on cell proliferation and cell death were evaluated based on a FACS analysis. Tunnel staining (for dying cells) and PI staining (excluded by living cells) were used to evaluate cell death in lanperisone and DMSO treated wild-type and K-Ras mutant cells (cells with a Kras G12D mutation).

[2] = test system: wild-type and K-rasG12D MEFs; test: Gene expression profiling (GSEA, Connectivity Map); assay type: cell-based, mouse
Procedure: (§1) To study the selectivity of lanperisone for K-ras mutant cells, gene expression profiling experiments were carried out using wild-type and K-rasG12D MEFs treated with lanperisone or control DMSO. The gene expression signatures associated with lanperisone treatment were compared with those observed upon 1) manipulation of any of a number of defined biological pathways (i.e., Gene Set Enrichment Analysis or GSEA) and 2) treatment with small molecules with known targets including FDA-approved drugs (ie the Connectivity Map or CMAP). […] This mechanism of cell death occurs in both mouse and human cells, as well as in both fibroblast and epithelial cell lines.

[3] = test system: K-rasG12D-expressing cells; test: Additional biochemical experiments on mechanism of cell death (reactive oxygen species); assay type: cell-based; conditions: mouse and human cells, fibroblast and epithelial cell lines
Procedure: as §1

[4] = test system: subcutaneous K-ras G12D-expressing mouse fibroblast tumors; test: Xenograft tumor size in mice; assay type: in vivo; conditions: 100-200 mg/kg once a day, 7 consecutive days, vs matched DMSO controls
Procedure: The effectiveness of one or more compounds of the invention (e.g., lanperisone) was evaluated in vivo using xenografts. The effect on xenograft tumor size was evaluated in mice by administering a compound of the invention at a dose of 100-200 mg/kg once a day (e.g., via oral administration in water). The compounds were also administered intraperitoneally. Mice harboring established, subcutaneous tumors measuring at least 1 cm were treated with lanperisone for 7 consecutive days. […] These findings confirm the in vivo efficacy of lanperisone in targeting K-ras mutant tumors.

[5] = test system: mouse embryonic fibroblasts (MEFs) expressing oncogenic K-Ras; test: Cell Titer Glo cell viability screen, mutant K-Ras vs wild-type MEFs; assay type: cell-based; conditions: cell viability by intracellular ATP
Excerpt: These MEFs have been extensively characterized at the molecular and cellular level. […] The inclusion of wild-type cells allowed for the elimination of general cytotoxic compounds and for the targeting of molecular pathways activated by oncogenic K-Ras.
(§2) The differential activity of tolperisone confirmed using other assays, such as BrdU cytoblot assay, which measures proliferation based upon incorporation of BrdU.

[6] = test system: K-Ras mutant cells; test: BrdU cytoblot assay (proliferation by BrdU incorporation); assay type: cell-based, mouse; conditions: proliferation based upon incorporation of BrdU
Excerpt: as §2

Structure (SMILES)	cell cycle phase specificity of cell death (cellular DNA content) ([1]; FACS, FIG. 3B)	cellular proliferation (BrdU staining) ([1]; FACS, FIG. 3C)	cell death (Tunnel staining / PI staining) ([1]; at 6 hours, 10 μM and 20 μM, Kras G12D cells relative to wild-type cells)	Connectivity Map connectivities with other classes of small molecules ([2]; calcium modulators, HDAC inhibitors, HIF activators)	GSEA pathway enrichment ([2]; lanperisone-treated MEFs vs DMSO)	mechanism of selective cell killing [3]	tumor size at the end of the treatment period [4]	concentration at which differential activity was shown (as low as) [5]	differential activity in BrdU cytoblot assay [6]
C[C@H](CN1CCCC1)C(=O)c1ccc(C(F)(F)F)cc1 [lanperisone]	not specific to any particular phase of the cell cycle	no specific defect in cellular proliferation	preferentially caused cell death in K-Ras mutant cells	Numerous connectivities	marked enrichment of hypoxia as well as oxidative stress pathways	selectively kills K-rasG12D-expressing cells by inducing reactive oxygen species	significantly smaller tumors than matched controls		
Cc1ccc(C(=O)C(C)CN2CCCCC2)cc1 (stereo not drawn) [tolperisone]								5 microns	confirmed
